Measurements: ChEMBL document CHEMBL4041549, “Tetrahydroisoquinoline-7-carboxamide Derivatives as New Selective Discoidin Domain Receptor 1 (DDR1) Inhibitors” (ACS Med Chem Lett, 2017)
Calls of active or inactive are those of the source. The calls are words filed in the database; no cut-off is given here.

What was measured:
[1] = biological target: Mast/stem cell growth factor receptor Kit (Homo sapiens, UniProt P10721); assay: Inhibition of recombinant human His-tagged c-kit cytoplasmic domain (544 to 976 residues) expressed in baculovirus expression system using […] as substrate measured after 1 hr by FRET-based Z'-Lyte assay
Sequence of Mast/stem cell growth factor receptor Kit (P10721 whole entry, the tested form may be a part): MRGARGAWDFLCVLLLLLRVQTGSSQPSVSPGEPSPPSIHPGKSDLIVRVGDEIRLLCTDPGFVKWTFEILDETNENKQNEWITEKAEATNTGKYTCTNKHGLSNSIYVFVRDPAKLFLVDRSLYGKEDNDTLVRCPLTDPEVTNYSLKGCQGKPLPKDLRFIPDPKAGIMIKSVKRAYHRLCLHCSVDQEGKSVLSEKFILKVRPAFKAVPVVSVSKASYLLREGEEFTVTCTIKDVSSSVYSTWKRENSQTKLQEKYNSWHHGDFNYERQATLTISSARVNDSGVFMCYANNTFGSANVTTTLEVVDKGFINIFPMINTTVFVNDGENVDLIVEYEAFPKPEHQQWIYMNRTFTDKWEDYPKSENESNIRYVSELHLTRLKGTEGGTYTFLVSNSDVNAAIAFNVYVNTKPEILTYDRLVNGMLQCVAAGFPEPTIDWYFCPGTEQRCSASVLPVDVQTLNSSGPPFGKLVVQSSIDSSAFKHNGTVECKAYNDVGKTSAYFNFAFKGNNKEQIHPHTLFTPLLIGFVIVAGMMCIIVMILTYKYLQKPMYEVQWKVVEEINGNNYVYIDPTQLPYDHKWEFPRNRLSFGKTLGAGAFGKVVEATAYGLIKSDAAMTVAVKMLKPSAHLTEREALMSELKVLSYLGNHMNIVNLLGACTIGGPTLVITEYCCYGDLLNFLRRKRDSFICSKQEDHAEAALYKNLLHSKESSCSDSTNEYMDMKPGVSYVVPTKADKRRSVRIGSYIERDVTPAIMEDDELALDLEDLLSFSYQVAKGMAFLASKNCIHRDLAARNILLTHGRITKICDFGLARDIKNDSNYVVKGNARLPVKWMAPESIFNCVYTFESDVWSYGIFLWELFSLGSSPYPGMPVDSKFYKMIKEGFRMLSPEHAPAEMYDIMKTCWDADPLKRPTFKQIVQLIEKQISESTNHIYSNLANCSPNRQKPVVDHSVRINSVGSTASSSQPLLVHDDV

Bcr/Abl fusion protein = Bcr/Abl fusion protein (Homo sapiens, UniProt P00519); assay: Inhibition of recombinant human full length His-tagged Bcr-Abl fusion protein cytoplasmic domain expressed in baculovirus expression system using tyrosine-2 as substrate measured after 1 hr by FRET-based Z'-Lyte assay
Sequence of Bcr/Abl fusion protein (P00519 whole entry, the tested form may be a part): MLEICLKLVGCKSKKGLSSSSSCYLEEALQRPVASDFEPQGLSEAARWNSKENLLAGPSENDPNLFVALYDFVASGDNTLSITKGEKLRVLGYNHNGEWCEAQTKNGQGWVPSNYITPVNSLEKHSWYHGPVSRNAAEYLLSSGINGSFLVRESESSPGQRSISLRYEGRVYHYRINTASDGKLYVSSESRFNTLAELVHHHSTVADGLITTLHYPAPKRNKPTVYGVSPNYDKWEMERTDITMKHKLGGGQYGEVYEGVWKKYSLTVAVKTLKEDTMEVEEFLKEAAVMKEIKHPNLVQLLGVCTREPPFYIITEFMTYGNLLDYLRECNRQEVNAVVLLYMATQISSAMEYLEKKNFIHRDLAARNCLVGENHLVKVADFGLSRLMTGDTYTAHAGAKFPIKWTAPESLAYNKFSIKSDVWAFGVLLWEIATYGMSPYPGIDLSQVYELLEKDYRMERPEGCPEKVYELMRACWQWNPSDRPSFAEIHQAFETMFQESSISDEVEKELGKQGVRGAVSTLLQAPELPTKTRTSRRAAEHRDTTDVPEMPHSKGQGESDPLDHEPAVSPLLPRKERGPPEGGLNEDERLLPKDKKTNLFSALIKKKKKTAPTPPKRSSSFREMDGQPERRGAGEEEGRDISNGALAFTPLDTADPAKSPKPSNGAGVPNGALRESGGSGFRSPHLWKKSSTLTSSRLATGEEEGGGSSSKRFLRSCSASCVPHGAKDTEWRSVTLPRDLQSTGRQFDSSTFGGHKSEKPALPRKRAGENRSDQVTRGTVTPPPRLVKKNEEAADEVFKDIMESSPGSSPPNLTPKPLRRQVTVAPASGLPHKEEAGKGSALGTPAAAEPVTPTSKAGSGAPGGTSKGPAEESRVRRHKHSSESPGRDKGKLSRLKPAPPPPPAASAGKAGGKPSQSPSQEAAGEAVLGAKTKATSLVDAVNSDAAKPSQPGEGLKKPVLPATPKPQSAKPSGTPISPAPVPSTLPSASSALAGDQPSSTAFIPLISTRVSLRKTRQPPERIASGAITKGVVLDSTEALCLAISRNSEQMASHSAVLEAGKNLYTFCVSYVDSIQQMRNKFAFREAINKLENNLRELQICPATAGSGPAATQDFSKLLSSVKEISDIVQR
Sequence of Bcr/Abl fusion protein (P11274 whole entry, further chain, the tested form may be a part): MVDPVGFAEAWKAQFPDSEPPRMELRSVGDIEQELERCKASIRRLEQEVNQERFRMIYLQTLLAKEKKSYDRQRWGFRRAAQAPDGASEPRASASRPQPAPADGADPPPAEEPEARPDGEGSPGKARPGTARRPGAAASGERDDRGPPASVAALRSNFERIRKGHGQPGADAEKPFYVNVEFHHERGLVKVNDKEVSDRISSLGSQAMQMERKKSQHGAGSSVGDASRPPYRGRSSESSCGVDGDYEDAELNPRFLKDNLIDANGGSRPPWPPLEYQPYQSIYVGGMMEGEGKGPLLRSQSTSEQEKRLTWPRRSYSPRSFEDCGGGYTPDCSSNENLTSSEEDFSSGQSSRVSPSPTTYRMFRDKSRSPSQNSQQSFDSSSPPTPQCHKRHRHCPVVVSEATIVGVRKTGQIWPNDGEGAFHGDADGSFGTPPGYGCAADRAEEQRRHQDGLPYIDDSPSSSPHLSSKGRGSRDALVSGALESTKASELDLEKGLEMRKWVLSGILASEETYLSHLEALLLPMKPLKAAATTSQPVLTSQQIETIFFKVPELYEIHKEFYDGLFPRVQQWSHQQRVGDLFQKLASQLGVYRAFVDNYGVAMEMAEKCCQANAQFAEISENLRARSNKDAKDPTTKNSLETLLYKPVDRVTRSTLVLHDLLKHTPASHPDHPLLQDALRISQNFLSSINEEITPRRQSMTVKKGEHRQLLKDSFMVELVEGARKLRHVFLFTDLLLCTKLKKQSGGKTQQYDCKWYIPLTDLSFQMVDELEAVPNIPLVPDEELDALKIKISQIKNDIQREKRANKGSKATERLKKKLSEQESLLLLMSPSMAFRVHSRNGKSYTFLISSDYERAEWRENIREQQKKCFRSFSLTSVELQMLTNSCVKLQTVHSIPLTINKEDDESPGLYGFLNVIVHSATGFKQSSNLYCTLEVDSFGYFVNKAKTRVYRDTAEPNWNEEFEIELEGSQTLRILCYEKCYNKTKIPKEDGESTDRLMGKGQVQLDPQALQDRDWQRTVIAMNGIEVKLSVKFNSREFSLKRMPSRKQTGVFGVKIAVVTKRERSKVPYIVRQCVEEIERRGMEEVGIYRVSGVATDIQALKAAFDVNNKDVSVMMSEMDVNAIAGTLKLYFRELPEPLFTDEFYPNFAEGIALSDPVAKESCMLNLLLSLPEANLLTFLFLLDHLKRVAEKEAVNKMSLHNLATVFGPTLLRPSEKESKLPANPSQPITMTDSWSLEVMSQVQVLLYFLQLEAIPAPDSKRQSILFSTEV

[2] = biological target: T1, Epithelial discoidin domain-containing receptor 1 (Homo sapiens, UniProt Q08345); assay: Inhibition of recombinant human GST-tagged DDR1 catalytic domain expressed in baculovirus expression system using Fluorescein-Poly GAT as substrate measured after 1 hr by TR-FRET assay
T1 sequence (Q08345 whole entry, the tested form may be a part): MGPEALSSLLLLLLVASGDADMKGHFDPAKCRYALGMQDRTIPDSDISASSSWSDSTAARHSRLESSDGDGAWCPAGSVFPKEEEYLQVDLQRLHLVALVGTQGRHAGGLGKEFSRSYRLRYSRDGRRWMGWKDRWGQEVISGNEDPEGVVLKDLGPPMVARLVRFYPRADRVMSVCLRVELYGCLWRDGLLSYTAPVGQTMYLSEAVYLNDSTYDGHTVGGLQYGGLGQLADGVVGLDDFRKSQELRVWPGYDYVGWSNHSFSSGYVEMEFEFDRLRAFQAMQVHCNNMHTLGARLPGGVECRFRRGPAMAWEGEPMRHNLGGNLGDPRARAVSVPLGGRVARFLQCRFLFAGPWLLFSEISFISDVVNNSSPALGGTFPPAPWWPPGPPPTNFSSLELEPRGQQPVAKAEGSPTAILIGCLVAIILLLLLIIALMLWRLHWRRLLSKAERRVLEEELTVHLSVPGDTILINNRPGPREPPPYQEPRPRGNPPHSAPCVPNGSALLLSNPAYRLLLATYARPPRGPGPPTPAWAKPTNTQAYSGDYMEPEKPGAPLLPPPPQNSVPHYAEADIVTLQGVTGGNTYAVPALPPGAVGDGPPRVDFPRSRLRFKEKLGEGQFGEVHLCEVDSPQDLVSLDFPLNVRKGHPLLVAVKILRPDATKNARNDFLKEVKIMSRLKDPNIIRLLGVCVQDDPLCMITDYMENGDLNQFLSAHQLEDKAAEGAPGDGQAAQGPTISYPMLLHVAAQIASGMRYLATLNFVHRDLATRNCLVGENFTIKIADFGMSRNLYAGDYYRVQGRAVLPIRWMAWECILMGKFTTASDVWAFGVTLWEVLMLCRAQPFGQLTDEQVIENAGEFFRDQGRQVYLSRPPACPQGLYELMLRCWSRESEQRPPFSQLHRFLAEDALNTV

[3] = biological target: T2, Discoidin domain-containing receptor 2 (Homo sapiens, UniProt Q16832); assay: Inhibition of recombinant human GST-tagged DDR2 cytoplasmic domain expressed in baculovirus expression system using Fluorescein-Poly GAT as substrate measured after 1 hr by TR-FRET assay
T2 sequence (Q16832 whole entry): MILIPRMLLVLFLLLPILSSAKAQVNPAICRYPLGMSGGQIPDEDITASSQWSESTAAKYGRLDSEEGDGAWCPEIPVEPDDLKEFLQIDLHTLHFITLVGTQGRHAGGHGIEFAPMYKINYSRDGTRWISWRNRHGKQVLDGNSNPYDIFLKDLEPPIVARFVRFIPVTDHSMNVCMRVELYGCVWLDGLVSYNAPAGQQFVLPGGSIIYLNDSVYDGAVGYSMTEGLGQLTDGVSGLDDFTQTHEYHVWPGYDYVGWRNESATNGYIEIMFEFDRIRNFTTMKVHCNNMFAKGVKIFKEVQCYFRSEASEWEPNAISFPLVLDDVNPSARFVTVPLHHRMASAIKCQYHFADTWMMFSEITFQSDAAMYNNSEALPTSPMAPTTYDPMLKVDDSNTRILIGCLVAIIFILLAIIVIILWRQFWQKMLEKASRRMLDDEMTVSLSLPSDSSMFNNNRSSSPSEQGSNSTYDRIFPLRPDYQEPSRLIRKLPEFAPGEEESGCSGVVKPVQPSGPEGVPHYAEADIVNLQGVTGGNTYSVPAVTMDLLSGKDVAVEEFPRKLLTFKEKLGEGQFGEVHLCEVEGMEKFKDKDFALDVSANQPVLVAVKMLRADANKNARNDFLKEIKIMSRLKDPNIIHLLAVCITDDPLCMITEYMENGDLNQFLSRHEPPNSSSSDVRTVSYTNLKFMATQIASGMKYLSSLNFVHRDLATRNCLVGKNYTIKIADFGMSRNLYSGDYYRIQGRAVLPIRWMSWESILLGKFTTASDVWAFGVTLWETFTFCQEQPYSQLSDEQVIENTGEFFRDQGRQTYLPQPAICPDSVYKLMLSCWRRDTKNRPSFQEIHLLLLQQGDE

[4] = biological target: T1, Epithelial discoidin domain-containing receptor 1; conditions: 1 uM
[5] = biological target: T1, Epithelial discoidin domain-containing receptor 1; assay: Binding affinity to human DNA-tagged DDR1 expressed in bacterial expression system measured after 1 hr by quantitative PCR analysis
[6] = biological target: BDNF/NT-3 growth factors receptor (Homo sapiens) (UniProt Q16620); assay: Binding affinity to human DNA-tagged TrkB measured after 1 hr by quantitative PCR analysis
Sequence of BDNF/NT-3 growth factors receptor (Homo sapiens) (Q16620 32-822 limits assumed): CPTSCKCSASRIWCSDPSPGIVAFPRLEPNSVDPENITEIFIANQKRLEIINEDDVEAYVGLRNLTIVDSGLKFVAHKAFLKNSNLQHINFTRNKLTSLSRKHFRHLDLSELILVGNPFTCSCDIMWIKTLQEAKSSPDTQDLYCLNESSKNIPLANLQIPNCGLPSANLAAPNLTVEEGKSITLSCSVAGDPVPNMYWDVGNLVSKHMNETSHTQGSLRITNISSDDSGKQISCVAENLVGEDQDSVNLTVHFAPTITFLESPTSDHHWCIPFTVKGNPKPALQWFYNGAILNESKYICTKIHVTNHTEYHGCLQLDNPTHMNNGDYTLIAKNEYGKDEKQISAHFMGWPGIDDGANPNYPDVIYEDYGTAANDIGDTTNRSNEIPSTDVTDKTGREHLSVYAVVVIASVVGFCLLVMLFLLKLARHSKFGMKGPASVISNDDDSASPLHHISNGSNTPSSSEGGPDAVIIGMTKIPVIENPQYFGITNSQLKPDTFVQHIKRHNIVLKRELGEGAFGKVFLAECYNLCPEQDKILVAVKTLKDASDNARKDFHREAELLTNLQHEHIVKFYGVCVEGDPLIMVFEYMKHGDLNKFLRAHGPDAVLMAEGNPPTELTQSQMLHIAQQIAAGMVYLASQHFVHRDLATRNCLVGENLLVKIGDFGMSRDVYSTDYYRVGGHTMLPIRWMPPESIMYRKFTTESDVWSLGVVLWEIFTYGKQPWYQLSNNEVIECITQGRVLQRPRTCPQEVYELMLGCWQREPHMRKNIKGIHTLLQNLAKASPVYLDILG

[7] = biological target: NT-3 growth factor receptor (Homo sapiens) (UniProt Q16288); assay: Binding affinity to human DNA-tagged TrkC measured after 1 hr by quantitative PCR analysis
Mus musculus [8] = assay: Anti-inflammatory activity in LPS-induced C57BL/6 mouse acute lung injury model assessed as reduction in pathological changes at 20 to 40 mg/kg, po bid pretreated for 7 days followed LPS challenge measured after 6 hrs hematoxylin and eosin staining based microscopy; type: functional, organism-based
Mus musculus [9] = assay: Anti-inflammatory activity in LPS-induced C57BL/6 mouse acute lung injury model assessed as reduction in lung wet/dry ratio at 20 to 40 mg/kg, po bid pretreated for 7 days followed by LPS challenge measured after 6 hrs; type: functional, organism-based
Peritoneal macrophage [10] = assay: Anti-inflammatory activity in C57BL/6 mouse primary peritoneal macrophages assessed as inhibition of LPS-induced IL-6 production by ELISA method; type: functional, cell-based
Mus musculus [11] = assay: Anti-inflammatory activity in po dosed LPS-induced C57BL/6 mouse acute lung injury model assessed as reduction in total number of cells in bronchoalveolar lavage fluid pretreated for 7 days followed by LPS challenge measured after 6 hrs by cell counter; type: functional, organism-based
Peritoneal macrophage [12] = assay: Anti-inflammatory activity in C57BL/6 mouse primary peritoneal macrophages assessed as inhibition of LPS-induced TNF-alpha production by ELISA method; type: functional, cell-based
Mus musculus [13] = assay: Anti-inflammatory activity in po dosed LPS-induced C57BL/6 mouse acute lung injury model assessed as reduction in total protein concentration in bronchoalveolar lavage fluid pretreated for 7 days followed by LPS challenge measured after 6 hrs; type: functional, organism-based

IC50 [1] [µM] | IC50 (Bcr/Abl fusion protein) [µM] | IC50 [2] [µM] | IC50 [3] [µM] | SMILES | also measured
> 10 | 10 |  |  | CC1CN(c2cncnc2)Cc2cc(C(=O)Nc3cc(CN4CCN(C)CC4)cc(-c4ccccc4)c3)ccc21 (racemic) | 
> 10 | > 10 |  |  | CN1CCN(Cc2cc(NC(=O)c3ccc4c(c3)CN(c3cncnc3)CC4(C)C)cc(C(F)(F)F)c2)CC1 | 
> 10 | > 10 | > 10 | > 10 | CC1CN(c2cncnc2)Cc2cc(NC(=O)Nc3cc(CN4CCN(C)CC4)cc(C(F)(F)F)c3)ccc21 (racemic) | 
> 10 | 8.1 | 0.0066 | 0.255 | C[C@H]1CN(c2cncnc2)Cc2cc(C(=O)Nc3cc(CN4CCCN(C)CC4)cc(C(F)(F)F)c3)ccc21 | inhibition [4]: 99.9%; Kd [5]: 0.0022 µM; Activity [6]: Active; Activity [7]: Active; Activity (Mus musculus [8]): Active; Activity (Mus musculus [9]): Active; inhibition (Peritoneal macrophage [10]): Dose-dependent effect; Activity (Mus musculus [11]): Dose-dependent effect; inhibition (Peritoneal macrophage [12]): Dose-dependent effect; Activity (Mus musculus [13]): Dose-dependent effect
> 10 | > 10 |  |  | CC1CN(c2cncnc2)Cc2cc(C(=O)Nc3cc(CN(C)C)cc(C(F)(F)F)c3)ccc21 (racemic) | 
> 10 |  |  |  | CC1CN(c2cncnc2)Cc2cc(C(=O)Nc3cc(CN4CCN(C)CC4)cc(C(F)(F)F)c3)ccc21 (racemic) | 
> 10 | > 10 |  |  | CCc1cc(CN2CCN(C)CC2)cc(NC(=O)c2ccc3c(c2)CN(c2cncnc2)CC3C)c1 (racemic) | 
> 10 | 4.3 |  |  | CC1CN(c2cncnc2)Cc2cc(C(=O)Nc3cc(CN4CCN(C)CC4)cc(C(C)(C)C)c3)ccc21 (racemic) | 
2.5 | 0.414 | 0.0131 | 0.203 | CCc1ccc(C(=O)Nc2cc(CN3CCN(C)CC3)cc(C(F)(F)F)c2)cc1C#Cc1ccc2ccnn2c1 | 
> 10 | > 10 |  |  | CC1CN(c2cncnc2)Cc2cc(C(=O)Nc3cc(CN4CCCN(C)CC4)cc(C(F)(F)F)c3)ccc21 (racemic) | 
> 10 | 8.7 | 0.0499 | 0.682 | CC(C)c1cc(CN2CCN(C)CC2)cc(NC(=O)c2ccc3c(c2)CN(c2cncnc2)CC3C)c1 (racemic) | 
> 10 | > 10 | > 10 | > 10 | CN1CCN(Cc2cc(NC(=O)c3ccc4c(c3)CN(c3ccncn3)CC4)cc(C(F)(F)F)c2)CC1 | 
> 10 | > 10 |  |  | CC1CN(c2cncnc2)Cc2cc(C(=O)Nc3cccc(C(F)(F)F)c3)ccc21 (racemic) | 
> 10 | > 10 |  |  | CC1CN(c2cncnc2)Cc2cc(C(=O)Nc3cc(CN4CCCCC4)cc(C(F)(F)F)c3)ccc21 (racemic) | 
> 10 | > 10 |  | 2.6 | CC1CN(c2cncnc2)Cc2cc(C(=O)Nc3cc(CN4CCCC4)cc(C(F)(F)F)c3)ccc21 (racemic) | 
> 10 | > 10 |  |  | CC1Cc2ccc(C(=O)Nc3cc(CN4CCN(C)CC4)cc(C(F)(F)F)c3)cc2CN1c1cncnc1 (racemic) | 

IC50 [1] [µM] | IC50 (Bcr/Abl fusion protein) [µM] | IC50 [2] [µM] | IC50 [3] [µM] | SMILES | also measured
> 10 | > 10 | > 10 | > 10 | CN1CCN(Cc2cc(NC(=O)c3ccc4c(c3)CN(Cc3cncnc3)CC4)cc(C(F)(F)F)c2)CC1 | 
> 10 | > 10 |  |  | CC1CN(c2cncnc2)Cc2cc(C(=O)Nc3cc(CN4CCSCC4)cc(C(F)(F)F)c3)ccc21 (racemic) | 
> 10 | > 10 | 0.0711 | 0.944 | CCN1CCN(Cc2cc(NC(=O)c3ccc4c(c3)CN(c3cncnc3)CC4C)cc(C(F)(F)F)c2)CC1 (stereo unspecified) | 
> 10 |  |  |  | CN1CCN(Cc2cc(NC(=O)c3ccc4c(c3)CN(c3cncnc3)CC4)cc(C(F)(F)F)c2)CC1 | 
> 10 |  |  |  | C[C@H]1CN(c2cncnc2)Cc2cc(C(=O)Nc3cc(CN4CCN(C)CC4)cc(C(F)(F)F)c3)ccc21 | 
> 10 | > 10 |  |  | CC1CN(c2cncnc2)Cc2cc(C(=O)Nc3cc(CN4CCOCC4)cc(C(F)(F)F)c3)ccc21 (stereo unspecified) | 
> 10 | > 10 | 0.123 |  | CC1CN(c2cncnc2)Cc2cc(C(=O)Nc3cc(CN4CCN(C)CC4)cc(C4CCCCC4)c3)ccc21 (racemic) | 
> 10 | > 10 |  | 2.1 | CC1CN(c2cncnc2)Cc2cc(C(=O)Nc3cc(N4CCN(C)CC4)cc(C(F)(F)F)c3)ccc21 (racemic) | 
> 10 | 0.547 |  | 0.354 | CC1CN(c2cncnc2)Cc2cc(C(=O)Nc3ccc(CN4CCN(C)CC4)c(C(F)(F)F)c3)ccc21 (racemic) | 
> 10 | 9.9 |  |  | CC1CN(c2cncnc2)Cc2cc(C(=O)Nc3cc(CN4CCN(C)CC4)cc(C4CC4)c3)ccc21 (racemic) | 
> 10 | > 10 | 0.0807 | 1.5 | CC1CN(c2cncnc2)Cc2cc(C(=O)Nc3cc(CCN4CCN(C)CC4)cc(C(F)(F)F)c3)ccc21 (racemic) | 
> 10 | > 10 | > 10 | > 10 | CC1CN(c2cncnc2)Cc2cc(C(=O)Nc3cccc(CN4CCN(C)CC4)c3)ccc21 (racemic) | 
> 10 | > 10 | 10 | > 10 | CC1CN(c2cncnc2)Cc2cc(C(=O)Nc3cc(C(F)(F)F)ccc3CN3CCN(C)CC3)ccc21 (stereo unspecified) | 
> 10 | > 10 | 0.167 | 2.6 | C[C@@H]1CN(c2cncnc2)Cc2cc(C(=O)Nc3cc(CN4CCCN(C)CC4)cc(C(F)(F)F)c3)ccc21 | 
> 10 | > 10 |  | 0.846 | CC1CN(c2cncnc2)Cc2cc(C(=O)Nc3cc(CN4CCN(C5CCCCC5)CC4)cc(C(F)(F)F)c3)ccc21 (racemic) | 
